{
  "source": "patent US20210382058A1",
  "about": "“PATIENT SELECTION FOR TREATMENT OF MYC POSITIVE CANCERS WITH INDENOISOQUINOLINES” (Purdue Research Foundation, priority 2020, published 2021)",
  "key": {"NCI-60 cancer cell lines": {"tested_on": "NCI-60 cancer cell lines", "test": "NCI-60 cancer cell line drug screen (GI50, MGM)", "format": "cell-based, human", "details": "Homo sapiens; for GI50: read-out: Antiproliferative Activities [GI50 (μM)]", "method": "Cancer cells were incubated with the test compounds at five concentrations ranging from 100 μM to 10 nM for 48 h. […] The approximate average of GI50 values across the entire panel of NCI-60 cancer cell lines for each compound was recorded as the MGM value."}, "human topoisomerase I": {"biological_target": "T1, human topoisomerase I (Homo sapiens, UniProt P11387)", "T1 sequence (P11387 1-765)": "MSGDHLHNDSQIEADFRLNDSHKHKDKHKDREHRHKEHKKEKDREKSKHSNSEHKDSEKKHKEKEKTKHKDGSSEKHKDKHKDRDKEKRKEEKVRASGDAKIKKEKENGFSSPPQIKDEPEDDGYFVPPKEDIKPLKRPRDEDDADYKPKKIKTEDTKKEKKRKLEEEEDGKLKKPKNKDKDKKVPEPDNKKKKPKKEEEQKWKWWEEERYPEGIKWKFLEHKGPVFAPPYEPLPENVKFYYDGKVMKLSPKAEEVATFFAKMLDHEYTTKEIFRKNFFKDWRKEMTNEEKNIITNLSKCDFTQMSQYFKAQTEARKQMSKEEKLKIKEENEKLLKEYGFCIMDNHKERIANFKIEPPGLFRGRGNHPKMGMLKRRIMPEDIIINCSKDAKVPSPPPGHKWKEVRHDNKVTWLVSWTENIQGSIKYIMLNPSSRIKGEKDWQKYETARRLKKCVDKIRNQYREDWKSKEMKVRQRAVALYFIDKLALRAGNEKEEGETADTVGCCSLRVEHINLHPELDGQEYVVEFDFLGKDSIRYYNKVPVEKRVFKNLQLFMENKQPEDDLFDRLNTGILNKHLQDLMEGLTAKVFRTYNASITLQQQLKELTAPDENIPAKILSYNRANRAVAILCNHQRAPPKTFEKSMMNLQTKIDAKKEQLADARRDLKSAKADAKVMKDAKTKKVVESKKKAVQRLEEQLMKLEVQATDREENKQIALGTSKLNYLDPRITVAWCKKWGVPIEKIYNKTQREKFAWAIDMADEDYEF", "details": "relative topoisomerase I inhibition levels, previously determined, six levels (0 - 5, +++++ = 5); cited from earlier work"}},
  "note": "Where two headings read alike, the source gives them in different places.",
  "data": [
    {"molecule": "COc1cc2c(cc1O)-c1c(c3ccc([N+](=O)[O-])cc3c(=O)n1CCCN1CCOCC1)C2=O", "note": "[Compound 36]", "values": [
      {"measurement": "GI50", "setting": "NCI-60 cancer cell lines; 786-0, Renal Cancer, 786-0", "result": 0.21, "unit": "µM"},
      {"measurement": "GI50", "setting": "NCI-60 cancer cell lines; A498, Renal Cancer, A498", "result": 0.07, "unit": "µM"},
      {"measurement": "GI50", "setting": "NCI-60 cancer cell lines; A549, Non-Small Cell Lung Cancer, A549/ATCC", "result": 0.52, "unit": "µM"},
      {"measurement": "GI50", "setting": "NCI-60 cancer cell lines; ACHN, Renal Cancer, ACHN", "result": 0.05, "unit": "µM"},
      {"measurement": "GI50", "setting": "NCI-60 cancer cell lines; BT-549, Breast Cancer, BT-549", "result": 0.12, "unit": "µM"},
      {"measurement": "GI50", "setting": "NCI-60 cancer cell lines; CAKI-1, Renal Cancer, CAKI-1", "result": 0.12, "unit": "µM"},
      {"measurement": "GI50", "setting": "NCI-60 cancer cell lines; CCRF-CEM, Leukemia, CCRF-CEM", "result": 0.05, "unit": "µM"},
      {"measurement": "GI50", "setting": "NCI-60 cancer cell lines; COLO 205, Colon Cancer, COLO 205", "result": 7.76, "unit": "µM"},
      {"measurement": "GI50", "setting": "NCI-60 cancer cell lines; DU-145, Prostate Cancer, DU-145", "result": 0.14, "unit": "µM"},
      {"measurement": "GI50", "setting": "NCI-60 cancer cell lines; HCC 2998, Colon Cancer, HCC-2998", "result": 1.42, "unit": "µM"},
      {"measurement": "GI50", "setting": "NCI-60 cancer cell lines; HCT-15, Colon Cancer, HCT-15", "result": 1.53, "unit": "µM"},
      {"measurement": "GI50", "setting": "NCI-60 cancer cell lines; HCT-116, Colon Cancer, HCT-116", "result": 0.22, "unit": "µM"},
      {"measurement": "GI50", "setting": "NCI-60 cancer cell lines; HL-60, Leukemia, HL-60(TB)", "result": 0.08, "unit": "µM"},
      {"measurement": "GI50", "setting": "NCI-60 cancer cell lines; HOP-62, Non-Small Cell Lung Cancer, HOP-62", "result": 0.12, "unit": "µM"},
      {"measurement": "GI50", "setting": "NCI-60 cancer cell lines; HOP-92, Non-Small Cell Lung Cancer, HOP-92", "result": 0.28, "unit": "µM"},
      {"measurement": "GI50", "setting": "NCI-60 cancer cell lines; HT-29, Colon Cancer, HT29", "result": 1.18, "unit": "µM"},
      {"measurement": "GI50", "setting": "NCI-60 cancer cell lines; Hs-578T, Breast Cancer, HS 578T", "result": 1.97, "unit": "µM"},
      {"measurement": "GI50", "setting": "NCI-60 cancer cell lines; IGROV-1, Ovarian Cancer, IGROV1", "result": 1.52, "unit": "µM"},
      {"measurement": "GI50", "setting": "NCI-60 cancer cell lines; K562, Leukemia, K-562", "result": 0.09, "unit": "µM"},
      {"measurement": "GI50", "setting": "NCI-60 cancer cell lines; KM12, Colon Cancer, KM12", "result": 1.04, "unit": "µM"},
      {"measurement": "GI50", "setting": "NCI-60 cancer cell lines; LOX IMVI, Melanoma, LOX IMVI", "result": 0.09, "unit": "µM"},
      {"measurement": "GI50", "setting": "NCI-60 cancer cell lines; Leukemia, SR", "result": 0.03, "unit": "µM"},
      {"measurement": "GI50", "setting": "NCI-60 cancer cell lines; MCF7, Breast Cancer, MCF7", "result": 0.05, "unit": "µM"},
      {"measurement": "GI50", "setting": "NCI-60 cancer cell lines; MDA-MB-231, Breast Cancer, MDA-MB-231/ATCC", "result": 2.06, "unit": "µM"},
      {"measurement": "GI50", "setting": "NCI-60 cancer cell lines; MDA-MB-435, Melanoma, MDA-MB-435", "result": 0.89, "unit": "µM"},
      {"measurement": "GI50", "setting": "NCI-60 cancer cell lines; MDA-MB-468, Breast Cancer, MDA-MB-468", "result": 0.14, "unit": "µM"},
      {"measurement": "GI50", "setting": "NCI-60 cancer cell lines; MOLT-4, Leukemia, MOLT-4", "result": 0.03, "unit": "µM"},
      {"measurement": "GI50", "setting": "NCI-60 cancer cell lines; Malme-3M, Melanoma, MALME-3M", "result": 1.16, "unit": "µM"},
      {"measurement": "GI50", "setting": "NCI-60 cancer cell lines; Melanoma, M14", "result": 0.08, "unit": "µM"},
      {"measurement": "GI50", "setting": "NCI-60 cancer cell lines; NCI-H23, Non-Small Cell Lung Cancer, NCI-H23", "result": 0.17, "unit": "µM"},
      {"measurement": "GI50", "setting": "NCI-60 cancer cell lines; NCI-H226, Non-Small Cell Lung Cancer, NCI-H226", "result": 0.45, "unit": "µM"},
      {"measurement": "GI50", "setting": "NCI-60 cancer cell lines; NCI-H322M, Non-Small Cell Lung Cancer, NCI-H322M", "result": 0.66, "unit": "µM"},
      {"measurement": "GI50", "setting": "NCI-60 cancer cell lines; NCI-H460, Non-Small Cell Lung Cancer, NCI-H460", "result": 0.03, "unit": "µM"},
      {"measurement": "GI50", "setting": "NCI-60 cancer cell lines; NCI-H522, Non-Small Cell Lung Cancer, NCI-H522", "result": 0.05, "unit": "µM"},
      {"measurement": "GI50", "setting": "NCI-60 cancer cell lines; OVCAR-3, Ovarian Cancer, OVCAR-3", "result": 0.57, "unit": "µM"},
      {"measurement": "GI50", "setting": "NCI-60 cancer cell lines; OVCAR-4, Ovarian Cancer, OVCAR-4", "result": 1.29, "unit": "µM"},
      {"measurement": "GI50", "setting": "NCI-60 cancer cell lines; OVCAR-5, Ovarian Cancer, OVCAR-5", "result": 3.6, "unit": "µM"},
      {"measurement": "GI50", "setting": "NCI-60 cancer cell lines; OVCAR-8, Ovarian Cancer, OVCAR-8", "result": 0.45, "unit": "µM"},
      {"measurement": "GI50", "setting": "NCI-60 cancer cell lines; Ovarian Cancer, NCl/ADR-RES", "result": 0.28, "unit": "µM"},
      {"measurement": "GI50", "setting": "NCI-60 cancer cell lines; Prostate Cancer, PC-3", "result": 0.67, "unit": "µM"},
      {"measurement": "GI50", "setting": "NCI-60 cancer cell lines; RPMI-8226, Leukemia, RPMI-8226", "result": 0.12, "unit": "µM"},
      {"measurement": "GI50", "setting": "NCI-60 cancer cell lines; RXF 393, Renal Cancer, RXF 393", "result": 0.46, "unit": "µM"},
      {"measurement": "GI50", "setting": "NCI-60 cancer cell lines; Renal Cancer, U0-31", "result": 0.07, "unit": "µM"},
      {"measurement": "GI50", "setting": "NCI-60 cancer cell lines; SF-268, CNS Cancer, SF-268", "result": 0.04, "unit": "µM"},
      {"measurement": "GI50", "setting": "NCI-60 cancer cell lines; SF-295, CNS Cancer, SF-295", "result": 0.18, "unit": "µM"},
      {"measurement": "GI50", "setting": "NCI-60 cancer cell lines; SF-539, CNS Cancer, SF-539", "result": 0.27, "unit": "µM"},
      {"measurement": "GI50", "setting": "NCI-60 cancer cell lines; SK-MEL-2, Melanoma, SK-MEL-2", "result": 9.44, "unit": "µM"},
      {"measurement": "GI50", "setting": "NCI-60 cancer cell lines; SK-MEL-5, Melanoma, SK-MEL-5", "result": 0.22, "unit": "µM"},
      {"measurement": "GI50", "setting": "NCI-60 cancer cell lines; SK-MEL-28, Melanoma, SK-MEL-28", "result": 1.37, "unit": "µM"},
      {"measurement": "GI50", "setting": "NCI-60 cancer cell lines; SK-OV-3, Ovarian Cancer, SK-OV-3", "result": 0.24, "unit": "µM"},
      {"measurement": "GI50", "setting": "NCI-60 cancer cell lines; SN12C, Renal Cancer, SN12C", "result": 0.2, "unit": "µM"},
      {"measurement": "GI50", "setting": "NCI-60 cancer cell lines; SNB-19, CNS Cancer, SNB-19", "result": 0.39, "unit": "µM"},
      {"measurement": "GI50", "setting": "NCI-60 cancer cell lines; SNB-75, CNS Cancer, SNB-75", "result": 0.21, "unit": "µM"},
      {"measurement": "GI50", "setting": "NCI-60 cancer cell lines; SW-620, Colon Cancer, SW-620", "result": 0.08, "unit": "µM"},
      {"measurement": "GI50", "setting": "NCI-60 cancer cell lines; T47D, Breast Cancer, T-47D", "result": 0.56, "unit": "µM"},
      {"measurement": "GI50", "setting": "NCI-60 cancer cell lines; TK-10, Renal Cancer, TK-10", "result": 2.12, "unit": "µM"},
      {"measurement": "GI50", "setting": "NCI-60 cancer cell lines; U-251, CNS Cancer, U251", "result": 0.12, "unit": "µM"},
      {"measurement": "GI50", "setting": "NCI-60 cancer cell lines; UACC-62, Melanoma, UACC-62", "result": 0.05, "unit": "µM"},
      {"measurement": "GI50", "setting": "NCI-60 cancer cell lines; UACC-257, Melanoma, UACC-257", "result": 0.48, "unit": "µM"},
      {"measurement": "mean GI50 across NCI-60 panel (MGM)", "setting": "NCI-60 cancer cell lines; average of GI50 values across the entire panel of NCI-60 cancer cell lines", "result": 280, "unit": "nM"},
      {"measurement": "Top1 Inhibiton", "setting": "human topoisomerase I", "result": "++ (medium inhibition, ++, MYC expression inhibited at 2.0 μM, or no clear dose-dependent MYC inhibition)"}
    ]}
  ]
}
